The values that follow come from patent US12577217B2, “15-PGDH inhibitor” (KYORIN Pharmaceutical Co., Ltd., priority 2019, dated 2026).

For this test, the target named is T1, recombinant human 15-PGDH (Homo sapiens, UniProt P15428).
T1 construct: purchased R&D Systems
T1 sequence (P15428 1-266): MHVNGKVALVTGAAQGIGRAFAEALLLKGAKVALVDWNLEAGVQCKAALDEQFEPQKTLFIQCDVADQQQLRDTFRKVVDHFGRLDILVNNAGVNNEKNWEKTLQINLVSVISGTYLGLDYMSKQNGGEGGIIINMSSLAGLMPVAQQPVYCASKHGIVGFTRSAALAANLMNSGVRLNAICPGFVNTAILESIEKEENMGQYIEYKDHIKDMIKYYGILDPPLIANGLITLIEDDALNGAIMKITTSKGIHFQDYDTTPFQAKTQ
As to the kind of experiment: 15-PGDH enzyme inhibition test. The following applies: 4 nM recombinant human 15-PGDH, 30 μM PGE2, 1 mM NAD+, 60 minutes after starting the reaction; read-out: IC50 Value. Format: biochemical. The gist of the method:
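4 nM recombinant human enzyme pre-incubated with compound 12 min at room temperature in 50 mM Tris-HCl pH 8.0 with 0.01% Tween 20 and 0.01% bovine gamma globulin. Reaction started with 30 μM PGE2 and 1 mM NAD+, read after 60 min by fluorescence (ex 340/em 440 nm). IC50 from concentration-response curve.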
`CN1Cc2cc(N3CCOc4cc(C(=O)N5CCC[C@H](F)C5)cnc43)ccc2C1=O` [Example 8-200]: the IC50 was less than 10 nM.
Take `COCn1nc2cc(N3CCCc4cc(C(=O)N5CCC[C@H](C(F)F)C5)cnc43)ccn2c1=O` [Example 8-118]: the IC50 is less than 10 nM.
Consider `CN1Cc2nc(N3CCOc4cc(C(=O)N5CCCCC5)cnc43)ccc2C1=O` [Example 1-102], for which the concentration for half-maximal inhibition (IC50) lay in the range of 10 to 100 nM.
On to `O=C(c1cnc2c(c1)CCCN2c1ccc2c(=O)[nH]ccc2c1)N1CCC(F)(F)CC1` [Example 1-181], for which the half-inhibitory concentration (IC50) is less than 10 nM.
`O=C1NCc2cc(N3CCOc4cc(C(=O)N5CCC(F)(F)CC5)cnc43)ccc21` [Example 14-6]: the IC50 is less than 10 nM.
`CN1Cc2cc(N3CCOc4cc(C(=O)N5CCCC(F)(F)C5)cnc43)ccc2C1=O` [Example 8-201]: the IC50 was less than 10 nM.
With `CS(=O)(=O)NCc1ccc(N2CCOc3cc(C(=O)N4CCCCC4)ccc32)cc1` [Example 1-160], the IC50 was less than 10 nM.
On to `O=C(c1cnc2c(c1)OCCN2c1ccc2c(c1)C(C1CC1)=NS2(=O)=O)N1CCCCC1` [Example 1-167], for which the IC50 fell in the range of 10 to 100 nM.
The same measure for `Cn1nc2cc(N3CCOc4cc(C(=O)NCCCCO)cnc43)ccn2c1=O` [Example 8-176]: 10 to 100 nM; for `Cn1nc2cc(N3CCCOc4cc(C(=O)N5CCC(F)(F)CC5)cnc43)ccn2c1=O` [Example 8-64]: less than 10 nM; for `CNC(=O)c1ccc(N2CCCc3cc(C(=O)N4CCCCC4)cnc32)cn1` [Example 1-210]: less than 10 nM.
Next, `O=C(c1cnc2c(c1)CCCN2c1ccc2c(=O)[nH]cnc2c1)N1CCCCC1` [Example 1-155]: less than 10 nM; `O=C(c1cnc2c(c1)OCCN2c1ccn2c(=O)n(Cc3ccccc3)nc2c1)N1CCCCC1` [Example 1-31]: less than 10 nM.
`O=C(c1cnc2c(c1)CCCN2c1ccc(Cl)cc1)N1CCCCC1` [Example 1-211]: the IC50 was 10 to 100 nM.
Consider `Cn1nc2cc(N3CCOc4cc(C(=O)N5CCC[C@H](C(F)(F)F)C5)cnc43)ccn2c1=O` [Example 8-116], for which the IC50 was less than 10 nM.
Take `CCN1Cc2cc(N3CCCc4cc(C(=O)N5CCC(F)CC5)cnc43)ccc2C1=O` [Example 8-86]: the IC50 was less than 10 nM.
Turning to `CN1Cc2cc(N3CCOc4cc(C(=O)N5CCC[C@@H](C(F)F)C5)cnc43)ccc2C1=O` [Example 8-205], the IC50 is less than 10 nM.
On to `CCn1nc2cc(N3CCCc4cc(C(=O)N5CCC[C@H](C(F)F)C5)cnc43)ccn2c1=O` [Example 8-168], for which the 50% inhibitory concentration (IC50) is less than 10 nM.
In the case of `Cn1nc2cc(N3CCN(c4cccnc4)c4cc(C(=O)N5CCC(F)(F)CC5)cnc43)ccn2c1=O` [Example 30-5], the IC50 is more than 100 nM.
For `Cn1nc2cc(N3CCCOc4cc(C(=O)N5CCC5)cnc43)ccn2c1=O` [Example 8-57], the IC50 was less than 10 nM.
As for `COCn1nc2cc(N3CCCc4cc(C(=O)N5CCCCC5)cnc43)ccn2c1=O` [Example 1-53], the concentration for half-maximal inhibition (IC50) is less than 10 nM.
With `O=C(c1cnc2c(c1)OCCN2c1ccn2c(=O)n(Cc3ccc(F)cc3)nc2c1)N1CCC(F)(F)CC1` [Example 27-4], the half-inhibitory concentration (IC50) was less than 10 nM.
Take `Cn1nc2cc(N3CCCc4cc(C(=O)N5CCc6ccccc6C5)cnc43)ccn2c1=O` [Example 8-130]: the IC50 is less than 10 nM.
For `N#Cc1ccc(N2CCOc3cc(C(=O)N4CCCCC4)cnc32)cc1` [Example 1-241], the IC50 is less than 10 nM.
The same measure for `O=C(c1cnc2c(c1)OCCN2c1ccn2c(=O)n(Cc3ccc(F)cc3F)nc2c1)N1CCC(F)(F)CC1` [Example 27-5]: less than 10 nM.
The same measure for `O=C(c1cnc2c(c1)OCCN2c1ccn2c(=O)n(CC(F)(F)F)nc2c1)N1CCC(F)(F)CC1` [Example 27-8]: less than 10 nM; for `CN1CCN(C(=O)c2cnc3c(c2)CCCN3c2ccn3c(=O)n(C)nc3c2)CC1` [Example 8-127]: 10 to 100 nM.
As to `CCOCn1nc2cc(N3CCCc4cc(C(=O)N5CCC[C@H](CF)C5)cnc43)ccn2c1=O` [Example 1-115], the 50% inhibitory concentration (IC50) is less than 10 nM.
As to `C[C@H]1CCCN(C(=O)c2cnc3c(c2)OCCCN3c2ccn3c(=O)n(C)nc3c2)C1` [Example 8-61], the IC50 is less than 10 nM.
Regarding `Cn1nc2cc(N3CCOc4cc(C(=O)N5CCCC5(C)C)cnc43)ccn2c1=O` [Example 8-173], the IC50 is 10 to 100 nM.
For `Cn1nc2cc(N3CCCc4cc(SC5CCCCC5)cnc43)ccn2c1=O` [Example 1-135], the IC50 fell in the range of 10 to 100 nM.
Take `COC(=O)c1ccc(N2CCOc3cc(C(=O)N4CCCCC4)ccc32)cc1` [Example 1-7]: the half-maximal inhibitory concentration (IC50) was less than 10 nM.
For the compound `CCOCCN1Cc2cc(N3CCCc4cc(C(=O)N5CCC(F)(F)CC5)cnc43)ccc2C1=O` [Example 1-83], the IC50 is less than 10 nM.
Consider `CCn1nc2cc(N3CCCc4cc(C(=O)N5CC=CCC5)cnc43)ccn2c1=O` [Example 8-154], for which the IC50 was less than 10 nM.
Next, `O=C(c1cnc2c(c1)OCCN2c1ccn2c(=O)[nH]nc2c1)N1CCCCC1` [Example 1-30]: less than 10 nM; `CCCCN1Cc2cc(N3CCOc4cc(C(=O)N5CCCCC5)cnc43)ccc2C1=O` [Example 1-223]: less than 10 nM.
`C[C@@H]1CCCN1C(=O)c1cnc2c(c1)OCCN2c1ccn2c(=O)n(C)nc2c1` [Example 8-22]: the concentration for half-maximal inhibition (IC50) fell in the range of 10 to 100 nM.
Consider `Cn1cnc2cc(N3CCOc4cc(C(=O)N5CCCCC5)cnc43)cnc2c1=O` [Example 1-38], for which the half-inhibitory concentration (IC50) is less than 10 nM.
Regarding `CCn1nc2cc(N3CCOc4cc(C(=O)N5CCCCCCC5)cnc43)ccn2c1=O` [Example 8-17], the IC50 is less than 10 nM.
Consider `O=C(O)c1ccc(N2CCCc3cc(C(=O)N4CCCCC4)cnc32)cc1` [Example 2-34], for which the IC50 is less than 10 nM.
Turning to `COCn1nc2cc(N3CCOc4cc(C(=O)N5CCC(F)(F)CC5)cnc43)ccn2c1=O` [Example 1-43], the half-maximal inhibitory concentration (IC50) was less than 10 nM.
Take `Cn1nc2cc(N3CCNc4cc(C(=O)N5CCC(F)(F)CC5)cnc43)ccn2c1=O` [Example 28-2]: the IC50 is less than 10 nM.
For `CCOCCN1Cc2cc(N3CCCc4cc(C(=O)N5CCCCC5)cnc43)ncc2C1=O` [Example 1-73], the half-maximal inhibitory concentration (IC50) was in the range of 10 to 100 nM.
As for `COCCOCCn1nc2cc(N3CCCc4cc(C(=O)N5CCC(F)(F)CC5)cnc43)ccn2c1=O` [Example 1-80], the concentration for half-maximal inhibition (IC50) was less than 10 nM.
As for `CCOCCn1nc2cc(N3CCCc4cc(C(=O)N5CCC(F)(F)CC5)cnc43)ccn2c1=O` [Example 1-79], the IC50 was less than 10 nM.
`CNC(=O)Cn1nc2cc(N3CCOc4cc(C(=O)N5CCCCC5)cnc43)ccn2c1=O` [Example 6-7]: the IC50 was less than 10 nM.
The same measure for `CNC(=O)c1ccc(N2CCOc3cc(C(=O)N4CCCCC4)cnc32)c(C)c1` [Example 6-13]: more than 100 nM; for `Cn1nc2cc(N3CCOc4c3ccc(C(=O)N3CCCCC3)c4Cl)ccn2c1=O` [Example 1-265]: less than 10 nM.
For the compound `CCn1nc2cc(N3CCOc4cc(C(=O)N5CCN(C(=O)OC(C)(C)C)CC5)cnc43)ccn2c1=O` [Example 8-220], the IC50 is more than 100 nM.
On to `Cn1nc2cc(N3CCOc4cc(C(=O)N5CCCC6CC65)cnc43)ccn2c1=O` (single isomer, unassigned) [23-1 Isomer A, 7-(7-(2-Azabicyclo[4,1,0]heptane-2-carbonyl)-2,3-dihydro-4H-pyrido[3,2-b][1,4]oxazin-4-yl)-2-methyl-[1,2,4]triazolo[4,3-a]pyridin-3(2H)-one], for which the concentration for half-maximal inhibition (IC50) is less than 10 nM.
The same measure for `CCN1Cc2cc(N3CCCc4cc(C(=O)N5CCC[C@@H](C(F)(F)F)C5)cnc43)ccc2C1=O` [Example 8-87]: less than 10 nM; for `CN1Cc2cc(N3CCOc4cc(C(=O)N5CCC[C@@H](CF)C5)cnc43)ccc2C1=O` [Example 8-203]: less than 10 nM.
For the compound `Cn1nc2cc(N3CCOc4cc(C(=O)N5CC(C)(F)C5)cnc43)ccn2c1=O` [Example 8-50], the half-inhibitory concentration (IC50) is less than 10 nM.
As to `CN1CCN(C(=O)c2cnc3c(c2)OCCN3c2ccn3c(=O)n(C)nc3c2)CC1` [Example 8-226], the half-maximal inhibitory concentration (IC50) lay within 10 to 100 nM.
For `CC(O)CCN(C)C(=O)c1cnc2c(c1)OCCN2c1ccn2c(=O)n(C)nc2c1` (centres unmarked) [Example 8-181], the IC50 was 10 to 100 nM.
Next, `Cn1nc2cc(N3CCCc4cc(C(=O)N5CCCC(F)(F)C5)cnc43)ccn2c1=O` [Example 8-139]: less than 10 nM.
With `CC(C)(C(N)=O)c1ccc(N2CCOc3cc(C(=O)N4CCCCC4)cnc32)cc1` [Example 6-20], the 50% inhibitory concentration (IC50) was more than 100 nM.
As to `CCN1Cc2cc(N3CCCc4cc(C(=O)N5CCC[C@H](C(F)(F)F)C5)cnc43)ccc2C1=O` [Example 8-88], the IC50 is less than 10 nM.
Take `Cc1cc(C(=O)O)ccc1N1CCOc2cc(C(=O)N3CCCCC3)cnc21` [Example 4-18]: the IC50 was in the range of 10 to 100 nM.
On to `CN1C(=O)c2ccc(N3CCOc4cc(C(=O)N5CCCCC5)cnc43)cc2S1(=O)=O` [Example 1-165], for which the IC50 is less than 10 nM.
The same measure for `CN1Cc2cc(N3CCOc4cc(C(=O)N5CC=CCC5)cnc43)ccc2C1=O` [Example 8-191]: less than 10 nM; for `COCCOCCn1nc2cc(N3CCCc4cc(C(=O)N5CCC[C@H](CF)C5)cnc43)ccn2c1=O` [Example 1-118]: less than 10 nM; for `O=C(c1ccc2c(c1)OCCN2C1CCCCC1)N1CCCCC1` [Example 8-14]: 10 to 100 nM.
As for `O=C(O)c1ccc(N2CCOc3cc(C(=O)N4CCCCC4)cnc32)cc1F` [Example 20-1, 2-Fluoro-4-(7-(piperidine-1-carbonyl)-2,3-dihydro-4H-pyrido[3,2-b][1,4]oxazin-4-yl)benzoic Acid], the IC50 is less than 10 nM.
In the case of `Cn1nc2cc(N3CCCc4cc(C(=O)N5CCC5)cnc43)ccn2c1=O` [Example 8-122], the IC50 is less than 10 nM.
